Results as given in patent US20250282723A1, “AMYLOID TARGETING AGENTS AND METHODS OF USING THE SAME” (The Regents of the University of California, priority 2021, published 2025).
Where “and” joins values, the source holds several entries; their conditions need not be identical. Equal values may be shown once.

Tests used:
[1] = Fluorescence excitation and emission spectra of free (unbound) probes in aqueous solution; format: physicochemical; details: for Em (λmax) (Free) / Ex (λmax) (Free): free probe in aqueous solution; for fluorescence intensity of the free probe in aqueous solution compared to ARCAM (1): free probes in aqueous solution, FIG. 2
Description: (§1) Estimation of fluorescence enhancement of probes when bound versus unbound to aggregated Aβ (1-42) peptides. Aggregated Aβ (1-42) at a final concentration of 5 μM (based on the molecular weight of monomer) was mixed with each fluorescent probe at a final concentration of 4 μM in 5% DMSO in nanopure water. The solution (80 μL) was transferred to a black opaque 96 well plate and the fluorescence was read using a microplate reader. For all probes, the relative fluorescence enhancement of the bound versus unbound state was estimated by comparing the intensity at λmax of the amyloid-bound state.
(§2) Aggregated αS or Aβ(1-42) at a final concentration of 5 μM (based on the molecular weight of monomer) was mixed with each fluorescent probe at a final concentration of 4 μM in 5% DMSO in nanopure water. The solution (80 μL total volume) was transferred to a black opaque 96 well plate and the fluorescence excitation and emission were read using a microplate reader. For emission fluorescence enhancement, the relative fluorescence enhancement of the bound versus unbound state was estimated by comparing the fluorescence intensity at λmax of the amyloid-bound state.

[2] = Quantum yield measurements; format: physicochemical; details: 5% DMSO/H2O, reference standard Coumarin 30
Description: Quantum Yield Measurements. To determine the quantum yield (QY) of compounds ARCAM, 1-5, a procedure that was similar to a previously reported protocol for estimating the QY for Thioflavin T^24 was used. Briefly, the absorbance spectrum of each probe (in 5% Dimethyl Sulfoxide (DMSO)/water (H2O)), in addition to the absorbance spectrum for the reference standard (Coumarin 30, QY=0.67)^27 was measured. The wavelength at which the two normalized absorbance curves intersected was used as the excitation wavelength. A serial dilution of each probe and the standard was made with absorbance values at the excitation wavelength in the range of 0 to 0.1 absorbance units. At each concentration, the emission spectra for each probe and the standard were measured. Technical triplicates of these experiments were performed for all probes, and the averages were recorded. From these emission spectra, the area under the curve was calculated and plotted against the absorbance at each concentration (FIGS. 3-7). The data were fitted to Equation 1 to obtain estimates for QY: […]
where QY represents the quantum yield, A represents the absorbance, E represents the integrated fluorescence emission, η represents the refractive index of the solvent^28,29, and the ‘p’ and ‘r’ subscripts signify the probe or the reference compound, respectively.
Quantum Yield ((D) for each probe was measured as described previously.^31 Briefly, we measured the absorbance spectrum of each probe in 5% DMSO/H2O, as well as the absorbance spectrum for the reference standard (Coumarin 30, =0.67 in Acetonitrile). Both normalized absorbance curves were plotted, and the wavelength of intersection was used as the excitation wavelength. A serial dilution was made for each probe and the standard with absorbance values at the excitation wavelength varying between of 0 to 0.1 absorbance units. At each concentration, the emission spectra for each probe and the standard were measured. Each experiment was repeated in technical triplicates for all probes, and the averages were recorded. The integrated fluorescence emission was calculated and plotted against the absorbance at each concentration. The data were fitted to Equation Si to obtain estimates for Φ: […]
where Φ represents the quantum yield, A represents the absorbance, E represents the integrated fluorescence emission, η represents the refractive index of the solvent, and the ‘p’ and ‘r’ subscripts signify the probe or the reference compound, respectively.

[3] = target: T1, aggregated Aβ (1-42) peptides (Homo sapiens, UniProt P05067); test: Estimation of binding constant (KD) to aggregated Aβ (1-42) peptides; details: aggregated Aβ(1-42) 5 μM, increasing concentration of probe, 5% DMSO in nanopure water
T1 construct: Synthetic Aβ (1-42) peptide was purchased from Biopeptide, Co LLC; purchased Biopeptide, Co LLC (San Diego, California); host or cells: chemical synthesis
Description: (§3) Preparation of aggregated Aβ (1-42) peptides. Synthetic Aβ (1-42) peptide was purchased from Biopeptide, Co LLC (San Diego, California). Aggregated Aβ (1-42) was prepared as previously described.^26 Briefly, Aβ (1-42) was dissolved in 100% 1,1,1,3,3,3,-hexafluoro-2-propanol (HFIP) to a concentration of 1 mM and put on a shaker at room temperature (RT) for 24 hours. The solution was then diluted in cold nanopure water (2:1 H2O: HFIP). Aliquoted fractions were lyophilized for 3 days before dissolving in nanopure water to a concentration of 100 μM. Aggregated Aβ solutions were incubated and shaken at 37° C. for 3 days before use. The formation of soluble aggregates (67% fibrils as a mixture with 13% oligomers and 20% monomer) was confirmed using a standard thioflavin T (ThT) assay and by Sodium Dodecyl Sulphate-Polyacrylamide Gel Electrophoresis (SDS-PAGE) gel analysis (FIG. 11 and FIG. 12).
Estimation of Binding Constant (KD) to aggregated Aβ (1-42) peptides. Aggregated Aβ(1-42) at a final concentration of 5 μM (based on the molecular weight of monomer) was mixed with increasing concentration of each probe in 5% DMSO in nanopure water. KD's were determined as previously described.^21
(§4) Synthetic Aβ (1-42) peptide was purchased from Biopeptide, Co LLC (San Diego, California). Aggregated Aβ (1-42) was prepared as previously described.^32 Briefly, monomeric Aβ (1-42) was dissolved in 100% 1,1,1,3,3,3,-hexafluoro-2-propanol (HFIP) to a final concentration of 1 mM and dissolved on a shaker at RT for 24 hours. This solution was then diluted with cold nanopure water (2:1 H2O:HFIP) and aliquoted into fractions. These samples were then lyophilized for 3 days before dissolving in nanopure water to a final concentration of 100 μM. AD solutions were aggregated by incubating and shaking at 37° C. for 3 days before use. The formation of soluble aggregates was confirmed using a standard Thioflavin T (ThT) assay and by SDS-PAGE gel analysis.^1
(§5) Aggregated Aβ(1-42) or αS at a final concentration of 5 μM (based on the molecular weight of the monomer) was mixed with an increasing concentration of each probe in 5% DMSO in nanopure water. Kd's were calculated as previously described.^34 The measurements for each probe were repeated in technical triplicates and the averages are shown with standard deviations. Kd's for probes 1-3 with aggregated Aβ(1-42) have been reported previously.^31

[4] = target: T1, aggregated Aβ (1-42) peptides; test: Fluorescence excitation/emission and fluorescence enhancement of probes bound versus unbound to aggregated Aβ (1-42) peptides; format: binding; details: probe 4 μM; for Em (λmax) (with Aβ) / Ex (λmax) (with Aβ): aggregated Aβ (1-42) 5 μM; for Fold Increase with Aβ: fluorescence intensity with aggregated Aβ (1-42) 5 μM vs probe alone, at λmax of the amyloid-bound state
Description: as §3, §1, §4, §2

[5] = in Acetonitrile; cited from earlier work
aggregated αS [6] = target: T2, aggregated αS (Homo sapiens, UniProt P37840); test: Estimation of binding constant (Kd) to aggregated αS; details: probes of FIG. 14; aggregated αS 5 μM, increasing concentration of probe, 5% DMSO in nanopure water
T2 construct: made in house; host or cells: E. coli BL21 (plasmid pET5α aSynWT)
Description: (§6) Expression and purification of recombinant α-synuclein was followed as reported previously.^32 Briefly, α-synuclein was purified from BL21 E. coli as described: A starter culture of transformed bacteria (pET5α aSynWT) (LB broth with ampicillin [final concentration: 100 μg/mL]) was incubated overnight. Following incubation, 25 mL of the started culture was added to a 500 mL mixture of LB broth and ampicillin. Protein expression was induced by addition of IPTG [0.119 g/500 mL] when an OD600 between 0.5-0.8 was achieved. After 4 h, flasks were centrifuged (5,000×g for 20 min) and the supernatant was removed. The pellets were then re-suspended in 20 mM Tris, 25 mM NaCl, 1 mM EDTA, pH 8.0, transferred into a flask, boiled for 1-2 minutes in a microwave, and boiled in a water bath (90° C.) for 30 minutes. Samples were then centrifuged (18,000×g for 30 min) and the supernatant was collected and filtered through a 0.2 μm filter. α-synuclein protein was further purified using 2×5 ml HiTrapQ HP anion exchange columns (GE, #17-1153-01) followed by Size Exclusion Column (Superdex 200, #28-9893-35). Pure α-synuclein determined by Coomassie and western blot were lyophilized and stored at −80° C. until use.
(§7) Aggregation of purified α-synuclein was followed as reported previously.^33 The lyophilized powder was dissolved to a final concentration of 100 μM in sodium phosphate buffer (50 mM, pH 7.4) with 0.1 mM EDTA and 0.02% sodium azide (w/v) and was aggregated at 37° C. with shaking at 500 rpm for 3 weeks. Fibrillization was confirmed by SDS-PAGE gel and standard ThT assay.
as §5

aggregated αS [7] = target: T2, aggregated αS; test: Fluorescence emission and fluorescence enhancement of probes bound versus unbound to aggregated αS; format: binding; details: probes of FIG. 14
Description: as §6, §7, §2

T1 sequence (P05067 672-713): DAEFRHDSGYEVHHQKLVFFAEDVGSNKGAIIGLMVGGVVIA

SMILES | Em (λmax) (Free) [1] [nm] | Ex (λmax) (Free) [1] [nm] | QY [2] | Kd [3] [µM] | Em (λmax) (with Aβ) ([4]; 5% DMSO in nanopure water) [nm] | Ex (λmax) (with Aβ) ([4]; 5% DMSO in nanopure water) [nm] | Fold Increase with Aβ ([4]; 5% DMSO in nanopure water) | fluorescence intensity of the free probe in aqueous solution compared to ARCAM (1) [1] | other results
COCCOCCOCCNC(=O)/C(C#N)=C(\C)c1ccc2cc(N3CCCCC3)ccc2c1 [Compound 2, (E)-2-cyano-N-(2-(2-(2-methoxyethoxy)ethoxy)ethyl)-3-(6-(piperidin-1-yl)naphthalen-2-yl)but-2-enamide] | 601 ± 2 | 372 ± 14 | 0.0016 ± 0.0005 | 5 ± 1.7 | 547 ± 4 | 364 ± 6 | 3.5 fold and 3.5 ± 0.9 fold | decreased in fluorescence intensity by two orders of magnitude | 
CCN(CC)c1ccc2cc(-c3nc4ccccc4n3C)c(=O)oc2c1 [Coumarin 30] |  |  |  |  |  |  |  |  | quantum yield of the reference standard [5]: 0.67
CCCC1CCCCN1c1ccc2cc(/C=C(\C#N)C(=O)NCCOCCOCCOC)ccc2c1 (stereo not drawn) [Probe 4, (E)-2-cyano-N-(2-(2-(2-methoxyethoxy)ethoxy)ethyl)-3-(6-(2-propylpiperidin-1-yl)naphthalen-2-yl)acrylamide] |  |  |  |  |  |  |  |  | Emmax (Free) ([1]; probes of FIG. 14, free): 578 nm; Kd (aggregated αS [6]): 0.5 ± 0.1 µM; Quantum Yield (Φ) ([2]; probes of FIG. 14): 0.0062; Kd ([3]; probes of FIG. 14): 4 ± 2.7 µM; Emmax (with αS) (aggregated αS [7]; aggregated αS 5 μM, probe 4 μM, 5% DMSO in nanopure water): 539 nm; FI with αS (aggregated αS [7]; fold increase of fluorescence, bound vs unbound, aggregated αS 5 μM, probe 4 μM): 5.2 ± 0.8; FI αS/Aβ (aggregated αS [7]; selectivity of fluorescence response to αS fibrils over Aβ fibrils): 2.9; Emmax (with Aβ) ([4]; probes of FIG. 14, aggregated Aβ(1-42) 5 μM, 5% DMSO in nanopure water): 558 nm; FI with Aβ ([4]; probes of FIG. 14, fold increase of fluorescence, bound vs unbound, aggregated Aβ(1-42) 5 μM): 1.8 ± 0.2

More lines, main results first:

Em (λmax) (Free) [1] [nm] | Ex (λmax) (Free) [1] [nm] | QY [2] | Kd [3] [µM] | Em (λmax) (with Aβ) ([4]; 5% DMSO in nanopure water) [nm] | Ex (λmax) (with Aβ) ([4]; 5% DMSO in nanopure water) [nm] | Fold Increase with Aβ ([4]; 5% DMSO in nanopure water) | SMILES | fluorescence intensity of the free probe in aqueous solution compared to ARCAM (1) [1] | other results
547 ± 5 | 419 ± 4 | 0.0012 ± 0.0004 | 3.7 ± 1.1 | 514 ± 6 | 410 ± 5 | 5.4 fold and 5.4 ± 0.9 fold | COCCOCCOCCNC(=O)C(C#N)=C(c1ccc2cc(N3CCCCC3)ccc2c1)C(F)(F)F (mixture of isomers) [Compound 3, (Z)-2-cyano-4,4,4-trifluoro-N-(2-(2-(2-methoxyethoxy)ethoxy)ethyl)-3-(6-(piperidin-1-yl)naphthalen-2-yl)but-2-enamide] | decreased in fluorescence intensity by two orders of magnitude | 
 |  | 0.0006 |  |  |  |  | Cc1ccc2c(c1)sc(-c1ccc(N(C)C)cc1)[n+]2C.[Cl-] [ThT, Thioflavin T, reference compound] |  | 
